ChEMBL document CHEMBL1201861, “Genomics of Drug Sensitity in Cancer screening data, Wellcome Trust Sanger Institute”

Columns and labels:
Assay in all cases: cells
Assay type in all cases: functional, cell-based, Homo sapiens
NCI-H1882 = settings: Homo sapiens, NCI-H1882;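 also: growth inhibition of the cell line, determined with a viability assay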
Description: SANGER: Inhibition of human NCI-H1882 cell growth in a cell viability assay.

JIYOYE = settings: Homo sapiens, JIYOYE
Description: SANGER: Inhibition of human JiyoyeP-2003 cell growth in a cell viability assay.

SIG-M5 = settings: Homo sapiens, SIG-M5;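 also: cell viability assay read-out, measuring how strongly growth of cultured human SIG-M5 cells is inhibited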
Description: SANGER: Inhibition of human SIG-M5 cell growth in a cell viability assay.

NCI-H716 = settings: Homo sapiens, NCI-H716;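 also: growth inhibition of human NCI-H716 cells, measured by a cell viability assay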
Description: SANGER: Inhibition of human NCI-H716 cell growth in a cell viability assay.

P31-FUJ = settings: Homo sapiens, P31-FUJ;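 also: growth inhibition of P31-FUJ cells, read out with a viability assay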
Description: SANGER: Inhibition of human P31-FUJ cell growth in a cell viability assay.

MONO-MAC-6 = settings: Homo sapiens, MONO-MAC-6;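 also: cell viability assay measuring growth inhibition of human MONO-MAC-6 cells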
Description: SANGER: Inhibition of human MONO-MAC-6 cell growth in a cell viability assay.

DG-75 = settings: Homo sapiens, DG-75;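 also: growth inhibition of DG-75 cells, read out with a cell viability assay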
Description: SANGER: Inhibition of human DG-75 cell growth in a cell viability assay.

ECC4 = settings: Homo sapiens, ECC4;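 also: growth inhibition of ECC4 cells, read out with a cell viability assay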
Description: SANGER: Inhibition of human ECC4 cell growth in a cell viability assay.

NCI-H1694 = settings: Homo sapiens, NCI-H1694;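 also: cell viability assay measuring inhibition of growth in human NCI-H1694 cells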
Description: SANGER: Inhibition of human NCI-H1694 cell growth in a cell viability assay.

NB1 = settings: Homo sapiens, NB1;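 also: reduction of NB1 cell proliferation, read out with a viability assay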
Description: SANGER: Inhibition of human NB1 cell growth in a cell viability assay.

NALM-6 = settings: Homo sapiens, NALM-6;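 also: growth inhibition of NALM-6 cells, read out with a cell viability assay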
Description: SANGER: Inhibition of human NALM-6 cell growth in a cell viability assay.

MDA-MB-134-VI = settings: Homo sapiens, MDA-MB-134-VI
Description: SANGER: Inhibition of human MDA-MB-134-VI cell growth in a cell viability assay.

SMILES	IC50 (NCI-H1882)	IC50 (JIYOYE)	IC50 (SIG-M5)	IC50 (NCI-H716)	IC50 (P31-FUJ)	IC50 (MONO-MAC-6)	IC50 (DG-75)	IC50 (ECC4)	IC50 (NCI-H1694)	IC50 (NB1)	IC50 (NALM-6)	IC50 (MDA-MB-134-VI)
C#Cc1cccc(Nc2ncnc3cc(OCCOC)c(OCCOC)cc23)c1 [ERLOTINIB]	> 2000 nM	> 2000 nM	> 2000 nM	> 2000 nM	> 2000 nM	> 2000 nM	> 2000 nM	> 2000 nM	> 2000 nM	–	–	–
COc1cc2ncn(-c3cc(OCc4ccccc4S(C)(=O)=O)c(C#N)s3)c2cc1OC [GSK-319347A]	> 5000 nM	> 5000 nM	> 5000 nM	> 5000 nM	> 5000 nM	> 5000 nM	> 5000 nM	> 5000 nM	> 5000 nM	> 5000 nM	> 5000 nM	> 5000 nM
COc1cc2ncn(-c3cc(OCc4ccccc4C(F)(F)F)c(C(N)=O)s3)c2cc1OC [GW843682X]	43.7 nM	148 nM	21 nM	> 256 nM	> 256 nM	34.6 nM	63.3 nM	> 256 nM	42 nM	35.1 nM	24.5 nM	> 256 nM
CC(=O)O[C@H]1C(=O)[C@@]2(C)[C@H]([C@H](OC(=O)c3ccccc3)[C@]3(O)C[C@H](OC(=O)[C@H](O)[C@@H](NC(=O)c4ccccc4)c4ccccc4)C(C)=C1C3(C)C)[C@]1(OC(C)=O)CO[C@@H]1C[C@@H]2O [PACLITAXEL]	64.2 nM	21.8 nM	3.27 nM	> 102 nM	> 102 nM	30.2 nM	69 nM	> 102 nM	> 102 nM	26.9 nM	12.1 nM	> 102 nM
N[C@@H](CSC(c1ccccc1)(c1ccccc1)c1ccccc1)C(=O)O [S-TRITYL-L-CYSTEINE]	2080 nM	1700 nM	2770 nM	> 5120 nM	> 5120 nM	1150 nM	> 5120 nM	> 5120 nM	> 5120 nM	2940 nM	676 nM	> 5120 nM
CC[C@H](CO)Nc1nc(NCc2ccccc2)c2ncn(C(C)C)c2n1 [SELICICLIB]	> 16000 nM	8500 nM	> 16000 nM	> 16000 nM	> 16000 nM	> 16000 nM	> 16000 nM	> 16000 nM	> 16000 nM	12300 nM	> 16000 nM	> 16000 nM
CCN(CC)CCNC(=O)c1c(C)[nH]c(/C=C2\C(=O)Nc3ccc(F)cc32)c1C [SUNITINIB]	> 8000 nM	> 8000 nM	1370 nM	> 8000 nM	> 8000 nM	33.8 nM	6430 nM	> 8000 nM	> 8000 nM	1960 nM	2900 nM	> 8000 nM
